The values below are quoted from earlier work in patent US20120129799A1, “STABLE COMPOSITION OF READY-TO-USE GEMCITABINE INJECTION” (ASTRON RESEARCH LIMITED, priority 2009, published 2012).

“Also recorded” adds a separate entry of the source.

The conditions of data set [1]: higher pH (5.0 to 9.0).

Consider `Nc1ccn([C@@H]2O[C@H](CO)[C@@H](O)C2(F)F)c(=O)n1` [Gemcitabine, 1-(2-oxo-4-amino-1,2-dihydropyrimidin-1-yl)-2-deoxy-2,2-difluororibose], for which the degradation products obtained entry (aqueous solution, pH 3.2 (sodium acetate), thermally stressed conditions) is reported as “four significant degradation products”. Also, the “chemical stability of aqueous solution” value (aqueous solution, pH of approximately 3.0) was “not chemically stable”. The “stability in aqueous solution” value (higher pH (5.0 to 9.0)) is recorded as “remains stable”. Further, where the note is “lower pH”, the stability result was “poor stability”. Further, the aqueous solubility result in data set [1] is reported as “low aqueous solubility; also recorded: very low solubility”.
